Assay results as given in article PMC2816223, “Designed Coiled-Coil Peptides Inhibit the Type Three Secretion System of Enteropathogenic Escherichia coli” (PLoS ONE, 2010).
Ends that are not written are not given here.

Legend:
[1] = test system: TTSS-mediated lysis of sheep RBC by EPEC E2348/69; details: for inhibition of TTSS-mediated RBC lysis caused by E2348/69: peptide 0.56 mg/ml, bacteria preincubated with peptide 1 h, then 5% sheep RBC 3 h at 37°C, released hemoglobin OD 543 nm, relative to EPEC alone (100%), triplicate
Procedure: Twelve-well plates containing peptides and bacteria were incubated for 1 h to allow their interaction. A 5% suspension of RBC was then added, plates were incubated for another 3 h, and supernatants were monitored for released hemoglobin.
K12 means the hemolysis caused by the E. coli non-pathogenic strain. […] Each assay was done by triplicate.
The plates were incubated for 1 h under a 5% CO2 atmosphere to allow the interaction between peptides and bacteria. In turn, red blood cells (RBCs) were separated by centrifugation from fresh defibrinated sheep blood, which was obtained by jugular vein punction, washed three times with 10 mM PBS (pH 7.4) and resuspended at 5% in PBS. Then, 2 ml of the 5% suspension of RBC in PBS was added to the cultures in the plates and incubated for 3 h at 37°C under a 5% CO2 atmosphere. The suspension was removed from the plates and centrifuged at 12,000×g for 1 min. Supernatants were monitored for the presence of released hemoglobin by measuring the OD at 543 nm.

[2] = test system: EPEC adherence to HEp-2 cells; experiment: Non-adherent bacteria in supernatant of infected HEp-2 cells, HEp-2 detaching; assay type: cell-based, enteropathogenic E. coli (EPEC) E2348/69; details: data not shown; for non-adherent bacteria in the supernatant of HEp-2 cells vs EPEC without peptides: EPEC preincubated with peptide; for HEp-2 detaching activity (cytopathic effect) by EPEC: bacteria preincubated with peptide
Procedure: (§1) For that, HEp-2 cells were treated with EPEC preincubated either with or without CoilA or CoilB, and EspA and Tir were then visualized using specific antibodies and confocal microscopy.
(§2) HEp-2 monolayers were inoculated with bacteria pretreated with CoilA or CoilB peptides as described for fluorescent actin staining. After infection, the supernatant was removed from the plates and serial dilutions were cultured overnight at 37°C on LB agar plates to determine the viability of bacteria. In turn, the monolayers were resuspended in 40 µl of lysis buffer (1% Triton X-100) and protease inhibitor mix (Complete™ protease inhibitors, Roche). This material was subjected to Western blotting as mentioned above.

[3] = test system: EspA and Tir associated to HEp-2 cells infected with EPEC E2348/69; experiment: Western blot of EPEC-secreted proteins associated to HEp-2 cells; assay type: cell-based, enteropathogenic E. coli (EPEC) E2348/69; details: HEp-2 cells treated 2 h with EPEC preincubated with peptide, washed, lysed
Procedure: To further determine the effect of CoilA and CoilB on EspA polymerization and Tir translocation were also examined by Western blotting. For that, HEp-2 cells were treated for 2 h with either EPEC alone or preincubated with each of the peptides and exhaustively washed. Cell extracts were prepared and the contents of EspA and Tir (Fig. 4) analyzed by Western blot using specific antibodies. […] The effective amount of EspA and Tir associated per cell may be even higher in non-treated (without peptides) cell cultures because it could be underestimated as some HEp-2 cells are detached from the surface upon infection. The pH buffering solution used to dilute CoilA and CoilB peptides had no effect and the results were similar to the positive control (Fig. 4).
Figure 4 CoilA and CoilB peptides block EspA polymerization and Tir translocation. Cell monolayers were infected with bacteria pretreated with peptides, washed, and lysed for Western blot detection of EspA and Tir proteins with specific rabbit antisera. pH represents a mock control to rule out the biological influence of alkaline pH used to dissolve peptides; PBS at alkaline pH was used in a volume identical to those in which peptides were added to HEp-2 cells.
as §2

[4] = test system: EspA filaments on EPEC E2348/69; experiment: Immunogold labeling and TEM of EspA filaments; assay type: cell-based, enteropathogenic E. coli (EPEC) E2348/69; details: EPEC incubated 4 h with peptide 0.56 mg/ml, fifty filaments, average with standard deviation, EPEC alone 700±150 nm
Procedure: Since coil peptides are able to inhibit the TTSS by blocking EspA polymerization, we expected a decrement in EspA filaments on the bacterial cell surface upon incubation with coil peptides.
Figure 6 CoilA peptide blocks the formation of EspA filaments. Immunogold EM of EspA filaments on EPEC cultures incubated either with or without CoilA peptide. After incubation of bacterial samples with specific rabbit anti-EspA serum, the samples were observed by TEM. EPEC alone, without peptides (A, C) and EPEC incubated with CoilA (B, D). Bars, 200 nm (A, B), or 100 nm (C, D). Yellow box frames show EspA filaments.
EPEC E2348/69 strain was grown in LB overnight at 37°C without shaking and diluted 1∶100 into DMEM with 0.56 mg/ml of either CoilA or CoilB, in 24-well plates. The plates were incubated for 4 h under a 5% CO2 atmosphere. A 50 µl droplet of bacterial culture was applied to nickel EM grids (mesh 200) coated with 0.25% Formvar resin (Structure Probe, Inc., SPI supplies, PA, USA) for 2 min. Cells were immediately fixed face down for 15 min with 0.1% buffered glutaraldehyde in PBS (pH 7.3). The grids were washed by transfer across 6 drops of PBS and blocked in PBS containing 0.2% bovine serum albumin for 30 min at room temperature. […] Fifty EspA filaments were identified and the size was measured the length is given as an average with a standard deviation.

[5] = test system: EspA, EspB, EspD and Tir secretion by EPEC E2348/69; experiment: In vitro TTSS protein secretion, Western blot of culture supernatants and bacterial lysates; assay type: cell-based, enteropathogenic E. coli (EPEC) E2348/69; details: EPEC incubated 4 h in DMEM with peptide 0.56 mg/ml; for secretion of EspD, Western blot: protein detected in pellet of lysed bacteria
Procedure: EPEC E2348/69 bacterial cultures were incubated in the presence of CoilA or CoilB peptides and concentrated supernatants and bacterial extracts were analyzed by Western blotting using specific antisera directed to EspA, EspB, EspD or Tir. The same amount of cell monolayer was loaded in each lane. pH represents a mock control to rule out the biological influence of alkaline pH used to dissolve peptides. PBS at alkaline pH was used in volumes identical to those in which peptides were added to cultures.
In order to determine the effect of syntethic peptides in the production and excretion of TTSS-proteins by EPEC, cellular and supernatants culture extracts of peptide-treated bacteria were subjected to western blot analysis with specific antisera. The E2348/69 strain grown overnight at 37°C in LB was diluted 1∶100 into 2 ml of DMEM containing CoilA or CoilB peptides at a concentration of 0.56 mg/ml, respectively, and cultured for another 4 h in the presence of 5% CO2. After collecting by centrifugation, bacteria were suspended in 2X SDS sample buffer and boiled for 5 min. The proteins present in culture supernatants were precipitated by the addition of trichloroacetic acid at 20% (wt/vol) and incubated overnight at 4°C. The protein precipitates were then collected by centrifugation at 20,000×g for 25 min, washed twice with 200 µl of ice-cold acetone and resuspended in 20 µl Tris-HCl 10 mM pH 8.8. Whole-cell extracts and culture supernatants were then analyzed by Western blotting using polyclonal rabbit antibodies against EspA, EspB, EspD and Tir recombinant proteins as described by Vilte et al. Primary antibodies were detected with horseradish peroxidase-conjugated goat anti-rabbit IgG (Sigma Chemical Co., St. Louis, MO) diluted 1∶10,000.

[6] = test system: EspA polymerization and Tir translocation by EPEC E2348/69; experiment: Immunofluorescence of EspA and Tir on infected HEp-2 cells (confocal microscopy); assay type: cell-based, enteropathogenic E. coli (EPEC) E2348/69; details: bacteria preincubated with peptide 0.56 mg/ml
Procedure: as §1

[7] = test system: EPEC E2348/69 adhering to HEp-2 cells; experiment: Fluorescent actin staining (FAS), A/E lesion / pedestal formation in HEp-2 cells; assay type: cell-based, enteropathogenic E. coli (EPEC) E2348/69; details: peptide 0.56 mg/ml preincubated 1 h with EPEC, MOI 7, 2 h infection, 100 cells examined; EPEC without peptides 80%
Source text: Since CoilA, CoilB and CoilD were able to inhibit the hemolysis caused by EPEC, which could involve translocator proteins at cell membrane level, we decided to explore whether peptides were also able to block effector proteins delivery and thus prevent the formation of A/E lesions in epithelial cells. Thus, peptides interfering in actin polymerization beneath E2348/69 strain adhering to HEp-2 cells were visualized by FAS (fluorescent actin staining). As expected, EPEC bacteria were able to induce actin polymerization for pedestal formation in almost all the cells (Fig. 2A), the A/E lesions were not seen in uninfected cells (Fig. 2B). CoilA or CoilB preincubation with EPEC caused a decrease in pedestal formation in epithelial cells, showing different effectiveness (Fig. 2C and Fig. 2D).
Figure 2 Coiled-coil peptides inhibit A/E lesion formation caused by EPEC. HEp-2 cells were incubated with EPEC E2348/69 either with or without coiled-coil peptides. […] Incubation of HEp-2 cells with the wild type EPEC E2348/69 strain without peptides (EPEC WT); preincubated with CoilA (EPEC+CoilA), or CoilB (EPEC+CoilB) peptide and uninfected cells. The corresponding percentage of HEp-2 cells carrying pedestals, obtained by examining 100 cells, is shown in panel E. EPEC pH represents a mock control to rule out the biological influence of alkaline pH used to dissolve peptides; PBS at alkaline pH was used in volumes identical to those in which peptides were added to HEp-2 cells.
HEp-2 cells (5×10^4) were seeded in eight well chamber slides (NUNC, Lab-Tek, USA) and incubated at 37°C under a 5% CO2 atmosphere up to 70–90% confluence. Overnight LB culture of the EPEC E2348/69 strain was diluted 1∶20 into 3 ml of DMEM and cultured for 1 h. CoilA, CoilB or CoilD peptides were then added to the culture at a concentration of 0.56 mg/ml and allowed to interact with the bacteria for 1 h at 37°C under a 5% CO2 atmosphere. […] The cells were observed under fluorescence microscopy with a confocal laser microscope (Leica TC SP2).

[8] = Solubilization of peptides in PBS pH 10.0 / precipitation; assay type: physicochemical
Procedure: CoilA, CoilB, CoilC, CoilD and PepTir peptides were synthesized commercially (Genbiotech, Buenos Aires). Peptides were solubilized with PBS (pH 10.0). […] EPEC E2348/69 [42] was kindly provided by Marta Rivas, ANLIS-Instituto Nacional de Microbiología Dr. Carlos G. Malbrán, Buenos Aires. […] Bacteria were grown in Luria Bertani broth (LB) or Dulbecco's modified Eagle medium (DMEM) lacking phenol red (Gibco-BRL), without antibiotics and bovine fetal serum at 37°C without shaking.

Row | Sequence | inhibition of TTSS-mediated RBC lysis caused by E2348/69 [1] | hemolysis at reduced peptide concentration ([1]; peptide 0.15 mg/ml, preincubated with EPEC E2348/69, sheep RBC, relative to EPEC alone) [%] | non-adherent bacteria in the supernatant of HEp-2 cells vs EPEC without peptides [2] [fold] | HEp-2 detaching activity (cytopathic effect) by EPEC [2] | Tir in the cells, Western blot [3] | amount of EspA associated to the cells and attached bacteria (incl. EspA polymers), Western blot [3] | EspA filament length [4] | secretion of EspB to the culture supernatant, Western blot [5] | secretion of Tir in vitro, Western blot [5] | secretion of EspD, Western blot [5] | secreted EspA (immunofluorescence) ([6]; anti-EspA sera) | translocated Tir (immunofluorescence) ([6]; anti-Tir sera) | HEp-2 cells showing pedestals [7] | tendency to precipitate / aggregation ([8]; observed in preparation for electron micrographs) | solubility in PBS (pH 10.0) ([8]; peptides solubilized with PBS pH 10.0)
1 | KVNIDENGNAI [PepTir] | did not show inhibitory activity |  |  |  |  |  |  |  |  |  |  |  |  |  | 
2 | LSDSVPELLNSTDLV [CoilC] | did not show inhibitory activity |  |  |  |  |  |  |  |  |  |  |  |  |  | 
3 | LTTTVNNSQLEIQQM [CoilA] | around 95% | 50 | 7 | absent | significant decrease | drastically decreased | about 250±50 nm | not clearly observed | lightly decreased | affected | drastic decrease | drastic decrease | 20% |  | 
4 | MSNTLNLLTSARSDM [CoilB] | around 95% |  | 40 | absent | significant decrease | drastically decreased |  | blocked the secretion of EspB | lightly decreased | affected |  |  | 2% | tendency to precipitate forming clumps | not completely soluble
5 | VNDPEKMLELQFAVQ [CoilD] | 25% |  |  |  |  |  |  |  |  |  |  |  | unable to inhibit pedestal formation |  | 
